One test deals with PC12 cells. In words: PC12 cell differentiation (neurite outgrowth). As to conditions: N2 medium, derivative 1-10 μM, 24 hr, visual inspection. Format: cell-based. The procedure, abridged:
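PC12 cells in N2 medium were exposed to derivatives (1-10 μM) for 24 hr, with Fisetin (10 μM) as positive control. Cells counted as positive if bearing ≥1 neurite longer than one cell body diameter; 100 cells scored in each of three fields per treatment.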

Test [1] can be described thus: TEAC, ABTS decolorization assay. As to conditions: relative to Trolox. In outline: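 Compound in ethanol added to persulfate-generated ABTS radical cation (OD ~0.7 at 734 nm); absorbance decrease followed at 734 nm for 4 min. TEAC is the slope of percent absorbance inhibition versus concentration divided by the corresponding Trolox slope.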
For another test, the system named is Nrf2. In words: Nrf2 induction, SDS-PAGE and Western blotting of nuclear extracts. Format: cell-based. As to conditions: cells treated 1, 2 and 4 hr. As for the experimental part: For immunoblotting of Nrf2, nuclear extracts were prepared as described (Schreiber, et al., Nucleic Acids Res. (1989) 17 (15), 6419) from untreated cells and cells treated with the Fisetin derivatives for 1, 2 and 4 hr. Fisetin was used as a positive control. […] Protein concentrations were determined using the BCA protein assay (Pierce). Equal amounts of protein were solubilized in 2.5×SDS-sample buffer, separated on 10% SDS-polyacrylamide gels and transferred to nitrocellulose. Equal loading and transfer of the samples was confirmed by staining the nitrocellulose with Ponceau-S. Transfers were blocked for 1 hr at room temperature with 5% nonfat milk in TBS/0.1% Tween 20 and then incubated overnight at 4° C. in the primary antibody diluted in 5% BSA in TBS/0.05% Tween 20. The primary antibodies used were: anti-Nrf2 (#SC13032; 1/1000) from Santa Cruz Biotechnology (Santa Cruz, Calif.) and anti-β-actin (#5125; 1/20,000) from Cell Signaling (Beverly, Mass.). The transfers were rinsed with TBS/0.05% Tween 20 and incubated for 1 hr at room temperature in horseradish peroxidase-goat anti-rabbit or goat anti-mouse (Biorad, Hercules, Calif.) diluted 1/5000 in 5% nonfat milk in TBS/0.1% Tween 20. The immunoblots were developed with the Super Signal reagent (Pierce, Rockford, Ill.).
The transcription factor Nrf2 plays a key role in regulating GSH metabolism in many different cell types (Lewerenz, et al., Antioxidant & Redox Signaling. (2011) 14, 1449-1465). We have shown that Fisetin can induce Nrf2 and this correlates with its ability to enhance GSH levels (Maher, P. et al., Genes. Nutr. (2009) September 10). To determine if the derivatives which can maintain GSH levels do so by increasing Nrf2 we looked at Nrf2 levels in the nuclei of derivative-treated cells using Fisetin as a positive control (Table 4). […] This was particularly true for the derivatives based on the quinoline scaffold where none of them increased Nrf2 despite being very effective at maintaining GSH levels.

For `O=C(/C=C/c1ccc(O)c(O)c1)c1ccc2ccccc2c1O` [CMS-034, (E)-3-(3,4-dihydroxyphenyl)-1-(1-hydroxynaphthalen-2-yl)prop-2-en-1-one], the “PC12 diff'n (ability to induce PC12 cell differentiation)” value in the test with PC12 cells is on record as “yes”. This compound also displayed a TEAC in test [1] of 2.8. In the test with Nrf2, the “Nrf2 (ability to induce the transcription factor Nrf2)” value (from here on “Nrf2”) is recorded as “Yes”.
The matching figures for `O=c1c(O)c(-c2ccc(O)c(O)c2)oc2ccccc12` [CMS-04P, reference compound]: “yes”, 2 and “Yes”.
The matching figures for `Oc1ccc(-c2cc(OC3CCCC3)c3ccccc3n2)cc1O` [CMS-121, 4-cyclopentyloxy-2-(3,4-dihydroxyphenyl) quinoline]: “yes”, 0.40 and “No”.
`Cc1cc2oc(-c3ccc(N(C)C)cc3)c(O)c(=O)c2cc1C` [CMS-117, 2-(4-(dimethylamino)phenyl)-3-hydroxy-6,7-dimethyl-4H-chromen-4-one]: the “PC12 diff'n (ability to induce PC12 cell differentiation)” value in the test on PC12 cells is “no”. This compound showed a TEAC in test [1] of 3. Moreover, the “Nrf2” value with Nrf2 is “No”.
The matching figures for `Cc1cc2oc(-c3ccc(N4CCCC4)cc3)c(O)c(=O)c2cc1C` [CMS-122, 3-hydroxy-6,7-dimethyl-2-(4-(pyrrolidin-1-yl)phenyl)-4H-chromen-4-one]: “yes”, 2.4 and “No”.
For `COc1cc(-c2oc3cc(C)c(C)cc3c(=O)c2O)ccc1O` [CMS-069, 3-hydroxy-2-(4-hydroxy-3-methoxyphenyl)-6,7-dimethyl-4H-chromen-4-one], the “PC12 diff'n (ability to induce PC12 cell differentiation)” value with PC12 cells is “no”. Moreover, the TEAC in test [1] turned out to be 1.89.
For the compound `O=c1c(O)c(-c2ccc(O)c(O)c2)oc2cc(O)ccc12` [Fisetin, 3,7,3′,4′-Tetrahydroxyflavone, reference compound], the “PC12 diff'n (ability to induce PC12 cell differentiation)” value in the test on PC12 cells was “yes”. The TEAC in test [1] came out at 3. Moreover, the “Nrf2” value in the test on Nrf2 is recorded as “Yes”.
The matching figures for `COc1ccc(/C=C/C(=O)c2cc(C)c(C)cc2O)cc1OCc1ccccc1` [CMS-086, (E)-3-(3-(benzyloxy)-4-methoxyphenyl)-1-(2-hydroxy-4,5-dimethylphenyl)prop-2-en-1-one]: “yes”, 0.12 and “Yes”.
For `Cc1cc(O)c(C(=O)/C=C/c2ccc(O)c(O)c2)cc1C` [CMS-011, (E)-3-(3,4-dihydroxyphenyl)-1-(2-hydroxy-4,5-dimethylphenyl)prop-2-en-1-one] the same measures were “yes”, 2.7 and “Yes”.
On to `O=c1c(O)c(-c2ccc(O)c(O)c2)oc2c1ccc1ccccc12` [CMS-040, 2-(3,4-dihydroxyphenyl)-3-hydroxy-4H-benzo[h]chromen-4-one], for which the “PC12 diff'n (ability to induce PC12 cell differentiation)” value in the test on PC12 cells is listed as “yes”. In addition, the TEAC in test [1] is 2.4.
The matching figures for `COc1cc(-c2oc3cc(C)c(C)cc3c(=O)c2O)ccc1OCc1ccccc1` [CMS-059, 2-(4-(benzyloxy)-3-methoxyphenyl)-3-hydroxy-6,7-dimethyl-4H-chromen-4-one]: “no” and 0.27.
For `CCOc1cc(-c2ccc(O)c(O)c2)nc2ccccc12` [CMS-023, 4-ethoxy-2-(3,4-dihydroxyphenyl) quinoline], the “PC12 diff'n (ability to induce PC12 cell differentiation)” value in the test on PC12 cells is on record as “yes”. In test [1], this compound showed a TEAC of 0.90. For the same compound, in the test on Nrf2, the “Nrf2” value is on record as “No”.
Consider `CN(C)c1ccc(-c2oc3c(ccc4ccccc43)c(=O)c2O)cc1` [CMS-118, 2-(4-(dimethylamino)phenyl)-3-hydroxy-4H-benzo[h]chromen-4-one], for which the “PC12 diff'n (ability to induce PC12 cell differentiation)” value in the test on PC12 cells is recorded as “no”. In test [1], this compound returned a TEAC of 0.93. The “Nrf2” value in the test with Nrf2 is reported as “No”.
For `CC(C)Oc1cc(-c2ccc(O)c(O)c2)nc2ccccc12` [CMS-024, 4-isopropoxy-2-(3,4-dihydroxyphenyl) quinoline] the same measures were “yes”, 0.18 and “No”.
For `COc1cc(-c2ccc(O)c(O)c2)nc2ccccc12` [CMS-007, 4-methoxy-2-(3,4-dihydroxyphenyl) quinoline] the same measures were “no”, 0.36 and “No”.
For `O=c1c(O)c(-c2ccc(N3CCCC3)c(O)c2)oc2c1ccc1ccccc12` [CMS-140, 3-hydroxy-2-(3-hydroxy-4-(pyrrolidin-1-yl)phenyl)-4H-benzo[h]chromen-4-one] the same measures were “Yes”, 2.1 and “No”.

(Values after patent US20140186329A1, “POLYPHENOL ANALOGS TO TREAT ISCHEMIA” (priority 2011, published 2014).)
